Test results published in ChEMBL document CHEMBL4673328, “Three bufadienolides induce cell death in the human lung cancer cell line CL1-5 mainly through autophagy” (Bioorg Med Chem Lett, 2021).
“And” between values parts separate entries of the source, which are not always exact repeats. Identical values can stand only once. The source made the active and inactive calls. The calls are words filed in the database; no cut-off is given here.

How the values were obtained:
[1] = Induction of apoptosis in human CL1-5 cells assessed as necrotic cells at 100 nM incubated for 24 hrs by AnnexinV/FITC and propidium iodide staining based flow cytometry analysis (reference value: 0.285%); assay type: functional
[2] = Induction of apoptosis in human CL1-5 cells assessed as early apoptotic cells at 100 nM incubated for 24 hrs by AnnexinV/FITC and propidium iodide staining based flow cytometry analysis (reference value: 2.65%); assay type: functional
[3] = Induction of apoptosis in human CL1-5 cells assessed as viable cells at 100 nM incubated for 24 hrs by AnnexinV/FITC and propidium iodide staining based flow cytometry analysis (reference value: 94.8 %); assay type: functional; settings: read-out: Activity
[4] = Induction of cell cycle arrest in human CL1-5 cells assessed as G2/M phase at 100 nM incubated for 24 hrs by propidium iodide staining based flow cytometry analysis (reference value: 18.04%); assay type: functional
[5] = Induction of autophagy in human CL1-5 cells assessed as fold decrease in p62 expression level at 100 nM incubated for 24 hrs by Western blot analysis relative to control; assay type: functional
[6] = Induction of autophagy in human CL1-5 cells assessed as fold increase in mTOR expression level at 100 nM incubated for 24 hrs by Western blot analysis relative to control; assay type: functional
[7] = Induction of autophagy in human CL1-5 cells assessed as fold decrease in phosphorylated mTOR expression level at 100 nM incubated for 24 hrs by Western blot analysis relative to control; assay type: functional
[8] = Induction of autophagy in human CL1-5 cells assessed as fold change in LC3-I expression level at 100 nM incubated for 24 hrs by Western blot analysis relative to control; assay type: functional
[9] = Induction of autophagy in human CL1-5 cells assessed as fold increase in Atg5 expression level at 100 nM incubated for 24 hrs by Western blot analysis relative to control; assay type: functional
[10] = Induction of autophagy in human CL1-5 cells assessed as fold increase in Beclin 1 expression level at 100 nM incubated for 24 hrs by Western blot analysis relative to control; assay type: functional
[11] = Cytotoxicity against human CL1-5 cells assessed as reduction in cell viability incubated for 24 hrs by MTT assay; assay type: functional, cell-based; settings: CL1-5, 24 h
[12] = Induction of autophagy in human CL1-5 cells assessed as fold increase in Atg7 expression level at 100 nM incubated for 24 hrs by Western blot analysis relative to control; assay type: functional
[13] = tested on: CL1-5; experiment: Induction of autophagy in human CL1-5 cells assessed as LC3-GFP punta formation at 100 nM incubated for 24 hrs by confocal microscopic analysis; assay type: functional, cell-based
[14] = Induction of apoptosis in human CL1-5 cells assessed as late apoptotic cells at 100 nM incubated for 24 hrs by AnnexinV/FITC and propidium iodide staining based flow cytometry analysis (reference value: 2.30%); assay type: functional
[15] = Induction of cell cycle arrest in human CL1-5 cells assessed as G0/G1 phase at 100 nM incubated for 24 hrs by propidium iodide staining based flow cytometry analysis (reference value: 62.2%); assay type: functional
[16] = Induction of autophagy in human CL1-5 cells assessed as fold change in p62 expression level at 100 nM incubated for 24 hrs in presence of early-stage autophagy inhibitor, 3-MA by Western blot analysis relative to control; assay type: functional
[17] = Induction of cell cycle arrest in human CL1-5 cells assessed as subG1 phase at 100 nM incubated for 24 hrs by propidium iodide staining based flow cytometry analysis (reference value: 2.28%); assay type: functional
[18] = Induction of autophagy in human CL1-5 cells assessed as fold increase in LC3-II expression level at 100 nM incubated for 24 hrs by Western blot analysis relative to control; assay type: functional
[19] = Induction of cell cycle arrest in human CL1-5 cells assessed as S phase at 100 nM incubated for 24 hrs by propidium iodide staining based flow cytometry analysis (reference value: 16.85%); assay type: functional
[20] = Induction of autophagy in human CL1-5 cells assessed as proportion of cells with degradative autophagic compartment at 100 nM incubated for 24 hrs by acridine orange staining based flow cytometry analysis (reference value: 0.34%); assay type: functional
[21] = Induction of autophagy in human CL1-5 cells assessed as fold increase in LC3-II expression level at 50 nM incubated for 24 hrs by Western blot analysis relative to control; assay type: functional
[22] = Induction of autophagy in human CL1-5 cells assessed as fold change in LC3-I expression level at 50 nM incubated for 24 hrs by Western blot analysis relative to control; assay type: functional
[23] = Induction of autophagy in human CL1-5 cells assessed as fold increase in Beclin 1 expression level at 50 nM incubated for 24 hrs by Western blot analysis relative to control; assay type: functional
[24] = Induction of autophagy in human CL1-5 cells assessed as fold increase in Atg7 expression level at 50 nM incubated for 24 hrs by Western blot analysis relative to control; assay type: functional
[25] = tested on: CL1-5; experiment: Induction of autophagy in human CL1-5 cells assessed as LC3-GFP punta formation at 50 nM incubated for 24 hrs by confocal microscopic analysis; assay type: functional, cell-based
[26] = Induction of autophagy in human CL1-5 cells assessed as fold increase in mTOR expression level at 50 nM incubated for 24 hrs by Western blot analysis relative to control; assay type: functional
[27] = Induction of autophagy in human CL1-5 cells assessed as fold increase in Atg5 expression level at 50 nM incubated for 24 hrs by Western blot analysis relative to control; assay type: functional
[28] = Induction of autophagy in human CL1-5 cells assessed as fold decrease in phosphorylated mTOR expression level at 50 nM incubated for 24 hrs by Western blot analysis relative to control; assay type: functional
[29] = Induction of autophagy in human CL1-5 cells assessed as fold decrease in p62 expression level at 50 nM incubated for 24 hrs by Western blot analysis relative to control; assay type: functional

SMILES | Activity [1] [%] | Activity [2] [%] | viability at 0.1 µM [3] [%] | Activity [4] [%] | fold change (FC) [5] | fold change (FC) [6] | fold change (FC) [7] | fold change (FC) [8] | fold change (FC) [9] | fold change (FC) [10] | IC50 [11] | fold change (FC) [12] | Activity [13] | Activity [14] [%] | Activity [15] [%] | fold change (FC) [16] | Activity [17] [%] | fold change (FC) [18] | Activity [19] [%] | Activity [20] [%] | also measured
CC(=O)O[C@H]1C(=O)[C@@]2(C)[C@H]([C@H](OC(=O)c3ccccc3)[C@]3(O)C[C@H](OC(=O)[C@H](O)[C@@H](NC(=O)c4ccccc4)c4ccccc4)C(C)=C1C3(C)C)[C@]1(OC(C)=O)CO[C@@H]1C[C@@H]2O [PACLITAXEL] | 2.31 | 18.6 | 72 | – | – | – | – | – | – | – | – | – | – | – | – | – | – | – | – | – | –
C[C@H]1C[C@H](O)[C@H](O)[C@H](O[C@H]2CC[C@]3(C=O)[C@H]4[C@H](O)C(=O)[C@]5(C)[C@@H](c6ccc(=O)oc6)CC[C@]5(O)[C@@H]4CC[C@]3(O)C2)O1 | 0.91 | 4.72 | 88.8 | 28.04 | 0.4 | 1.1 | 0.08 | 0.93 | 2.77 | 12.86 | 0.0523 µg/mL and 90.8 nM | 1.76 | Active | 5.52 | 43.83 | 0.56 | 2.14 | 2.55 | 24.94 | 14.45 | –
CC(=O)O[C@H]1C[C@H](C)O[C@@H](O[C@H]2CC[C@]3(C=O)[C@H]4[C@H](O)C(=O)[C@]5(C)[C@@H](c6ccc(=O)oc6)CC[C@]5(O)[C@@H]4CC[C@]3(O)C2)[C@H]1O | 0.658 | 3.53 | 90.9 | 23.65 | 0.42 | 1.28 | 0.31 | 0.69 | 1.51 | 10.47 | 0.0706 µg/mL and 114 nM | 1.18 | Active | 4.93 | 60.1 | 1.19 | 1.81 | 1.84 | 13.21 | 12.29 | –
CO[C@H]1C[C@@H]2CC[C@@H](C)[C@@](O)(O2)C(=O)C(=O)N2CCCC[C@H]2C(=O)O[C@H]([C@H](C)C[C@@H]2CC[C@@H](O)[C@H](OC)C2)CC(=O)[C@H](C)/C=C(\C)[C@@H](O)[C@@H](OC)C(=O)[C@H](C)C[C@H](C)/C=C/C=C/C=C/1C [SIROLIMUS] | – | – | – | – | – | – | – | – | – | – | – | – | – | – | – | – | – | – | – | – | fold change (FC) [21]: 1.3; fold change (FC) [22]: 1.69; fold change (FC) [23]: 16.57; fold change (FC) [24]: 1.26; Activity [25]: Active; fold change (FC) [26]: 1.14; fold change (FC) [27]: 2.17; fold change (FC) [28]: 0.26; fold change (FC) [29]: 0.79
C[C@@]12O[C@H]3C[C@@H](O1)[C@]1(C=O)[C@H]4[C@H](O)C(=O)[C@]5(C)[C@@H](c6ccc(=O)oc6)CC[C@]5(O)[C@@H]4CC[C@@]1(C3)O2 | 1.3 | 4.19 | 88.6 | 23.26 | 0.59 | 1.23 | 0.58 | 1.03 | 2.01 | 3.2 | 0.0767 µg/mL and 162 nM | 1.18 | inactive | 5.88 | 60.71 | 1.02 | 2.25 | 2.36 | 13.2 | 11.35 | –
